Measurements from paper PMC7865522, “Analyzing Kinase Similarity in Small Molecule and Protein Structural Space to Explore the Limits of Multi-Target Screening” (Molecules, 2021).

Legend:
MET = molecular target: T1, MET (Homo sapiens, UniProt P08581); experiment: DiscoverX KINOMEscan competition binding assay; settings: compound 10 µM; lower values = higher affinity; below 35% = significant binding
T1 construct: purchased DiscoverX (KINOMEscan service); host or cells: E. coli BL21-derived host (T7 phage) or HEK-293
Method: (§1) Ligand binding experiments for the molecules selected from Profiles 1 and 2 towards nine kinases (EGFR, ErbB2, LCK, CDK2, BRAF, MET, p38α, PI3K and VEGFR2) and for molecules selected from Profiles 3 and 4 towards four kinases (EGFR, ErbB2, BRAF and VEGFR2) were carried out by DiscoverX using the supplied protocol as described in the Supplementary Materials. Briefly, ligand affinity was measured by competition with a resin-bound standard ligand and washed-off kinase concentration was determined via qPCR.
(§2) Summarizing, binding of a compound to a kinase was tested in comparison to a control compound (see Table S2). […]
(§3) 1.1. DiscoverX kinase assay
(§4) For most assays, kinase-tagged T7 phage strains were grown in parallel in 24-well blocks in an E.coli host derived from the BL21 strain. E.coli were grown to log-phase and infected with T7 phage from a frozen stock (multiplicity of infection = 0.4) and incubated with shaking at 32°C until lysis (90-150 minutes). The lysates were centrifuged (6,000 x g) and ﬁltered (0.2µm) to remove cell debris.
(§5) The remaining kinases were produced in HEK-293 cells and subsequently tagged with DNA for qPCR detection. Streptavidin-coated magnetic beads were treated with biotinylated small molecule ligands for 30 minutes at room temperature to generate afﬁnity resins for the kinases. The liganded beads were blocked with excess biotin and washed with blocking buffer (SeaBlock [Pierce], 1% BSA, 0.05% Tween 20, 1 mM DTT) to remove unbound ligands and to reduce non-speciﬁc phage binding. Binding reactions were assembled by combining kinases, liganded afﬁnity beads, and test compounds in 1x binding buffer (20% SeaBlock, 0.17x PBS, 0.05% Tween 20, 6 mM DTT). Test compounds were prepared as 40x stocks in 100% DMSO and directly diluted into the assay. All reactions were performed in polypropylene 384-well plates in a ﬁnal volume of 0.02 ml. The assay plates were incubated at room temperature with shaking for 1 hour and the afﬁnity beads were washed with wash buffer (1x PBS, 0.05% Tween 20). The beads were then re-suspended in elution buffer (1x PBS, 0.05% Tween 20, 0.5 µM non-biotinylated afﬁnity ligand) and incubated at room temperature with shaking for 30 minutes. The kinase concentration in the eluates was measured by qPCR. […]
(§6) Table S2. Experimental % control values from the DiscoverX kinase assay. Compounds were tested against the nine kinases EGFR, ErbB2, LCK, CDK2, BRAF, MET, p38α, PI3K and VEGFR2, unless otherwise stated. Binding of kinase and compound were tested at a compound concentration of 10 µM and in comparison to a control compound. Lower values indicate a higher afﬁnity of the compound to the protein and values below 35% indicate signiﬁcant binding according to information of the CRO. […]
(§7) a Compounds were only tested against four kinases (EGFR, ErbB2, BRAF and VEGFR2). b Compound was selected independently from two docking proﬁles and tested separately during

CDK2 = molecular target: T2, CDK2 (Homo sapiens, UniProt P24941); experiment: DiscoverX KINOMEscan competition binding assay; settings: compound 10 µM; lower values = higher affinity; below 35% = significant binding
T2 construct: purchased DiscoverX (KINOMEscan service); host or cells: E. coli BL21-derived host (T7 phage) or HEK-293
Method: as §1, §2, §3, §4, §5, §6, §7

BRAF [1] = molecular target: T3, BRAF (Homo sapiens, UniProt P15056); experiment: DiscoverX KINOMEscan competition binding assay; settings: compound 10 µM; lower values = higher affinity; below 35% = significant binding
T3 construct: purchased DiscoverX (KINOMEscan service); host or cells: E. coli BL21-derived host (T7 phage) or HEK-293
T3 sequence (P15056 whole entry): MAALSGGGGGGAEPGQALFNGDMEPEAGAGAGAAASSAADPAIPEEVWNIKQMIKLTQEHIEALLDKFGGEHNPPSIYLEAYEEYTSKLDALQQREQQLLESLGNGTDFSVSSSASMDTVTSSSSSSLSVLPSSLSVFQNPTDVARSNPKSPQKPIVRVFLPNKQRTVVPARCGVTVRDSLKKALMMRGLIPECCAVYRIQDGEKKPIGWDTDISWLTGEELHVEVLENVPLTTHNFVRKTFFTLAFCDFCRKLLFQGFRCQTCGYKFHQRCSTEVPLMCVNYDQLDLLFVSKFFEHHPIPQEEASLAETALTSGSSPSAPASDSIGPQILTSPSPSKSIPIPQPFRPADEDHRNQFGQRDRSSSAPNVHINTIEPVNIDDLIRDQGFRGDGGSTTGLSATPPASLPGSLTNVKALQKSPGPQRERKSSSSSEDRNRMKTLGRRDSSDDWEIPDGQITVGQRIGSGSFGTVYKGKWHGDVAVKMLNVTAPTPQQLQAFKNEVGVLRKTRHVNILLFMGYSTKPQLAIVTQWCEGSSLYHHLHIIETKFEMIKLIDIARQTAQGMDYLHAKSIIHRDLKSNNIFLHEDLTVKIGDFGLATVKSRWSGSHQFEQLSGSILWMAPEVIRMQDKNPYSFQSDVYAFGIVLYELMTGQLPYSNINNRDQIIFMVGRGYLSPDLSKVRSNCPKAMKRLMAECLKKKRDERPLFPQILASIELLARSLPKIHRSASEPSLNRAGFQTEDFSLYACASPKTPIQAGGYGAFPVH
Method: as §1, §2, §3, §4, §5, §6, §7

ErbB2 [2] = molecular target: T4, ErbB2 (Homo sapiens, UniProt P04626); experiment: DiscoverX KINOMEscan competition binding assay; settings: compound 10 µM; lower values = higher affinity; below 35% = significant binding
T4 construct: purchased DiscoverX (KINOMEscan service); host or cells: E. coli BL21-derived host (T7 phage) or HEK-293
T4 sequence (P04626 23-1255): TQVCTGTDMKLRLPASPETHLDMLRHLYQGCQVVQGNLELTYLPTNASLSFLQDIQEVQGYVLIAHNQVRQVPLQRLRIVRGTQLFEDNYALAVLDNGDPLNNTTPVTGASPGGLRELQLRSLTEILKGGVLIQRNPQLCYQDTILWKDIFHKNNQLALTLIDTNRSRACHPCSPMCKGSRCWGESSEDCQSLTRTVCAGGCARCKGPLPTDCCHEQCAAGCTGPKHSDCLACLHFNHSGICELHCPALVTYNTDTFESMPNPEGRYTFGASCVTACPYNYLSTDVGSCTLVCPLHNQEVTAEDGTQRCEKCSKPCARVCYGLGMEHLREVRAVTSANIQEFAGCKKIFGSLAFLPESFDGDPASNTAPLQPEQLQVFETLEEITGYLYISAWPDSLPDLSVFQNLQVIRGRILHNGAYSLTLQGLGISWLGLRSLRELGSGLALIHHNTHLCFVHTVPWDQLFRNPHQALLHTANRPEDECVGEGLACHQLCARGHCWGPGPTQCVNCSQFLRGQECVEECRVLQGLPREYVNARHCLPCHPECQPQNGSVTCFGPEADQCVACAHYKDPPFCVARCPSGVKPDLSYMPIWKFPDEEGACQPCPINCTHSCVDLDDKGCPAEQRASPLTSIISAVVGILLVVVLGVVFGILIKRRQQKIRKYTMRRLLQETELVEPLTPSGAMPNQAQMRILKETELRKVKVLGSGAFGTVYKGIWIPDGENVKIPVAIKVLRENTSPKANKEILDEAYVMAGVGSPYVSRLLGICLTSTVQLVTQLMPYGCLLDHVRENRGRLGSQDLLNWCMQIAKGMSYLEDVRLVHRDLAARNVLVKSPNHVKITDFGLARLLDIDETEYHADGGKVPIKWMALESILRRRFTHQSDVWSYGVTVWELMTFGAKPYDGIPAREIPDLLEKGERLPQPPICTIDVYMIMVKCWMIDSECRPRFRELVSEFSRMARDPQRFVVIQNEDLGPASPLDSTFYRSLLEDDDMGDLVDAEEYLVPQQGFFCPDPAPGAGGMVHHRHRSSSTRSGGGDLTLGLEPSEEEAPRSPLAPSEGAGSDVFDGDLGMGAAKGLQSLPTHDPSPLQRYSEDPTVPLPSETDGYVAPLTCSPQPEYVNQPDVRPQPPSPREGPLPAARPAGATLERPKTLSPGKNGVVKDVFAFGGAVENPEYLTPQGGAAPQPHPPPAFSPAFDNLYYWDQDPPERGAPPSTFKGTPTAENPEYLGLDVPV
Method: as §1, §2, §3, §4, §5, §6, §7

LCK = molecular target: T5, LCK (Homo sapiens, UniProt P06239); experiment: DiscoverX KINOMEscan competition binding assay; settings: compound 10 µM; lower values = higher affinity; below 35% = significant binding
T5 construct: purchased DiscoverX (KINOMEscan service); host or cells: E. coli BL21-derived host (T7 phage) or HEK-293
T5 sequence (P06239 whole entry): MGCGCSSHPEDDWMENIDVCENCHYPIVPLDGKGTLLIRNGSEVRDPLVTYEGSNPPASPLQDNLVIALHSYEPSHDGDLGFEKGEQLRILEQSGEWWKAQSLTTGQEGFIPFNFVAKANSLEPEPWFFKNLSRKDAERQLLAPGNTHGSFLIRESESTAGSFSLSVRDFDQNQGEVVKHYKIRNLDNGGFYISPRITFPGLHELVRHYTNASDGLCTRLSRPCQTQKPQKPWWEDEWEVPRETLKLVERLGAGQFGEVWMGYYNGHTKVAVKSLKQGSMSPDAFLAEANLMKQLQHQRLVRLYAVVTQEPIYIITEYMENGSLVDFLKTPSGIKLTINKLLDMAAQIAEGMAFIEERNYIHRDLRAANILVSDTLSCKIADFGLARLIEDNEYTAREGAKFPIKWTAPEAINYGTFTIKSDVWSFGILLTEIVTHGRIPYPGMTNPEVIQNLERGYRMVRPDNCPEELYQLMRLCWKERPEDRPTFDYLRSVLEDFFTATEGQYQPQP
Method: as §1, §2, §3, §4, §5, §6, §7

VEGFR2 = molecular target: T6, VEGFR2 (Homo sapiens, UniProt P35968); experiment: DiscoverX KINOMEscan competition binding assay; settings: compound 10 µM; lower values = higher affinity; below 35% = significant binding
T6 construct: purchased DiscoverX (KINOMEscan service); host or cells: E. coli BL21-derived host (T7 phage) or HEK-293
Method: as §1, §2, §3, §4, §5, §6, §7

EGFR [3] = molecular target: T7, EGFR (Homo sapiens, UniProt P00533); experiment: DiscoverX KINOMEscan competition binding assay; settings: compound 10 µM; lower values = higher affinity; below 35% = significant binding
T7 construct: purchased DiscoverX (KINOMEscan service); host or cells: E. coli BL21-derived host (T7 phage) or HEK-293
T7 sequence (P00533 25-1210): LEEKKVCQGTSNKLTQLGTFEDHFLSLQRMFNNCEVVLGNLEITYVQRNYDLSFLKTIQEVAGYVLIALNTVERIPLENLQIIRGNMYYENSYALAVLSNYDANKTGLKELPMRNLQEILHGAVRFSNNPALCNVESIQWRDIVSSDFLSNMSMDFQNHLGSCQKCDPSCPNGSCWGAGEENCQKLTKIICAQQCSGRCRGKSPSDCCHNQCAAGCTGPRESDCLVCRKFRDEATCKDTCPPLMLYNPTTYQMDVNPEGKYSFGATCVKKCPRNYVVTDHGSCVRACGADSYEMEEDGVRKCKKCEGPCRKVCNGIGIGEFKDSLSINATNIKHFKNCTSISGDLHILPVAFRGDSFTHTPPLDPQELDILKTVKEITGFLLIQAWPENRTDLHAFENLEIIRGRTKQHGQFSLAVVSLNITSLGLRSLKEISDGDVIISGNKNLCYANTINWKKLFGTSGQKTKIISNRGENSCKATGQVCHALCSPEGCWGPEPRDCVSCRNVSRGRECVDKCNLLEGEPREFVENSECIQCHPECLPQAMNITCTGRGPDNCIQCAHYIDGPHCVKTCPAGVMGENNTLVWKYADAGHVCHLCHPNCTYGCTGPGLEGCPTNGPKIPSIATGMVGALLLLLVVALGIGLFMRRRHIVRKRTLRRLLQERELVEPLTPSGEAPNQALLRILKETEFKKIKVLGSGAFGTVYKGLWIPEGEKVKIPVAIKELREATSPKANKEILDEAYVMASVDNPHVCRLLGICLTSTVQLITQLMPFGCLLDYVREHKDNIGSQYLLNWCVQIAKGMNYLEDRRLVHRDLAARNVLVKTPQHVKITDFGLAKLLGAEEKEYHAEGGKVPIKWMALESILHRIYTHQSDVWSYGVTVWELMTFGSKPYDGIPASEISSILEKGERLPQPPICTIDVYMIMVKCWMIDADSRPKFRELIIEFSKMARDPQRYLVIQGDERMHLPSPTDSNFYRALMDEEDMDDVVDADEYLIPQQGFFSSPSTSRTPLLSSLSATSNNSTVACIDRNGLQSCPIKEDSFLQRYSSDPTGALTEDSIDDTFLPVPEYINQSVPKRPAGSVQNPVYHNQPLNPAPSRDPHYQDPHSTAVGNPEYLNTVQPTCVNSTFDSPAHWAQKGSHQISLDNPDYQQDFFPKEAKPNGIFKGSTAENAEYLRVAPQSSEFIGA
Method: as §1, §2, §3, §4, §5, §6, §7

p38α = molecular target: T8, p38α (Homo sapiens, UniProt Q16539); experiment: DiscoverX KINOMEscan competition binding assay; settings: compound 10 µM; lower values = higher affinity; below 35% = significant binding
T8 construct: purchased DiscoverX (KINOMEscan service); host or cells: E. coli BL21-derived host (T7 phage) or HEK-293
T8 sequence (Q16539 whole entry): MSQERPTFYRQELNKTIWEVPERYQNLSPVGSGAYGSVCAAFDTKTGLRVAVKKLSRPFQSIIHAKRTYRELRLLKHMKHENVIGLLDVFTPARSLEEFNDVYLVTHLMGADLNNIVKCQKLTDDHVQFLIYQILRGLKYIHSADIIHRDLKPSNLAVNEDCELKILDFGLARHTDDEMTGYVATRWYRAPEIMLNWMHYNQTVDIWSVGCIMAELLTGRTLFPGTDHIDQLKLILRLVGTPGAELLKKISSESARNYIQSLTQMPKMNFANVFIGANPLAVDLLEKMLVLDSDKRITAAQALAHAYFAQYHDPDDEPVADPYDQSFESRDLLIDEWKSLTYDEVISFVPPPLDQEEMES
Method: as §1, §2, §3, §4, §5, §6, §7

BRAF [4] = molecular target: T3, BRAF; experiment: Eurofins in vitro kinase inhibition assay; assay type: biochemical; settings: compound 20 µM; mean (SD); above 50% significant, 25-50% weak
Method: (§8) Kinase inhibition assays for EGFR, ErbB2, PI3K and BRAF were carried out by Eurofins Cerep following the protocols of Weber et al. (EGFR), Quian et al. (ErbB2), Sinnamon et al. (PI3K) and Kupcho et al. (BRAF). Briefly, except for PI3K, compounds were incubated with the respective kinase, ATP, and a substrate analog, and the effect of each compound on phosphorylation was measured. In the case of PI3K, the displacement of biotinylated PIP3 from a PIP3-binding complex by unlabelled PIP3 (produced from PIP2 by PI3K) was measured by Homogeneous Time Resolved Fluorescence (HTRF).
(§9) Finally, inhibition of the respective kinases is calculated as the percentage inhibition of control activity.
(§10) Table S3. Experimental results from the Euroﬁns assay. Inhibition of four kinases (EGFR, PI3K, ErbB2, BRAF) was measured at compound concentrations of 20 µM. Inhibition was calculated as % inhibition of control activity. According to CRO, values above 50% inhibition represent signiﬁcant inhibition, values above 25% weak inhibition effect and values below 25% as well as negative values are usually not signiﬁcant. Results are reported in mean (SD) format. […]
(§11) a Compound interfered with assay readout.

ErbB2 [5] = molecular target: T4, ErbB2; experiment: Eurofins in vitro kinase inhibition assay; assay type: biochemical; settings: compound 20 µM; mean (SD); above 50% significant, 25-50% weak
Method: as §8, §9, §10, §11

EGFR [6] = molecular target: T7, EGFR; experiment: Eurofins in vitro kinase inhibition assay; assay type: biochemical; settings: compound 20 µM; mean (SD); above 50% significant, 25-50% weak
Method: as §8, §9, §10, §11

PI3K [7] = molecular target: T9, PI3K (Homo sapiens, UniProt P42336); experiment: DiscoverX KINOMEscan competition binding assay; design: purchased DiscoverX (KINOMEscan service); host or cells: E. coli BL21-derived host (T7 phage) or HEK-293; settings: compound 10 µM; lower values = higher affinity; below 35% = significant binding
Method: as §1, §2, §3, §4, §5, §6, §7

PI3K [8] = molecular target: T9, PI3K; experiment: Eurofins in vitro kinase inhibition assay (HTRF, PIP3 displacement); assay type: biochemical; design: purchased Eurofins Cerep (contract assay); settings: compound 20 µM; mean (SD); above 50% significant, 25-50% weak
Method: as §8, §9, §10, §11

| Compound | % control, MET (DiscoverX) (MET) | % control, CDK2 (DiscoverX) (CDK2) | % control, BRAF (DiscoverX) (BRAF [1]) | % control, ErbB2 (DiscoverX) (ErbB2 [2]) | % control, LCK (DiscoverX) (LCK) | % control, VEGFR2 (DiscoverX) (VEGFR2) | % control, EGFR (DiscoverX) (EGFR [3]) | % control, p38α (DiscoverX) (p38α) | % inhibition of control activity, BRAF (Eurofins) (BRAF [4]) | % inhibition of control activity, ErbB2 (Eurofins) (ErbB2 [5]) | % inhibition of control activity, EGFR (Eurofins) (EGFR [6]) | % control, PI3K (DiscoverX) (PI3K [7]) | % inhibition of control activity, PI3K (Eurofins) (PI3K [8]) |
| --- | --- | --- | --- | --- | --- | --- | --- | --- | --- | --- | --- | --- | --- |
| Cc1ccc(/C=C2\N=C(c3cccc(S(=O)(=O)N(C)C)c3)OC2=O)s1 [DS74871] | 95 % control | 100 % control | 100 % control | 100 % control | 90 % control | 100 % control | 100 % control | 81 % control | -44.9 (24.1) % inhibition | -8.3 (1.2) % inhibition | 23.3 (4.2) % inhibition | 100 % control | 22.1 (2.3) % inhibition |
| O=C(Cn1cnc2c(cnn2CCO)c1=O)NCc1ccccc1 [DS05168] | 94 % control | 99 % control | 98 % control | 100 % control | 95 % control | 100 % control | 100 % control | 100 % control | -12.4 (10.9) % inhibition | 2.8 (1.6) % inhibition | 11.1 (1.8) % inhibition | 100 % control | -1 (1.6) % inhibition |
| CC1(C)C2CC=C(COC(=O)c3cnn4cccnc34)C1C2 (centres unmarked) [DS34376] | 100 % control | 99 % control | 92 % control | 100 % control | 100 % control | 100 % control | 90 % control | 100 % control | -11.3 (4.2) % inhibition | -1.6 (1.9) % inhibition | 16.1 (7.5) % inhibition | 100 % control | -2 (0.8) % inhibition |
| O=C(Oc1ccc2c3c(c(=O)oc2c1)CCC3)c1cccc(Cl)c1 [DS76514] | 90 % control | 100 % control | 89 % control | 96 % control | 100 % control | 100 % control | 87 % control | 97 % control | -33.6 (18.1) % inhibition | -0.6 (1.0) % inhibition | 3.2 (10.7) % inhibition | 100 % control | 17.4 (0.4) % inhibition |
| O=C(NCC1CC1)Nc1ccc(N2CCOC2=O)cc1 [DS75739] | 85 % control | 100 % control | 100 % control | 94 % control | 100 % control | 100 % control | 100 % control | 87 % control | -11.1 (4.9) % inhibition | -0.6 (1.1) % inhibition | 4.3 (6.9) % inhibition | 100 % control | 1.7 (0.8) % inhibition |
| O=C1C[C@@H](c2noc(-c3ccc[nH]c3=O)n2)CN1Cc1ccccc1 [DS52225] | 91 % control | 100 % control | 100 % control | 94 % control | 100 % control | 98 % control | 100 % control | 100 % control | -17.7 (15.6) % inhibition | 4.5 (4.9) % inhibition | 22.7 (15.5) % inhibition | 100 % control | 0.9 (3.6) % inhibition |
| CC(=O)c1cc(CC(=O)N(C)C[C@H]2CCCCO2)cs1 [DS84326] | 95 % control | 100 % control | 100 % control | 97 % control | 100 % control | 100 % control | 100 % control | 90 % control | -8.2 (13.6) % inhibition | 0.2 (2.8) % inhibition | 23.4 (0.6) % inhibition | 100 % control | 0.7 (0.8) % inhibition |
| O=C(O)c1cncnc1NCc1nc(-c2cnccn2)n[nH]1 [DS74417] | 100 % control | 100 % control | 86 % control | 100 % control | 100 % control | 100 % control | 89 % control | 100 % control | -0.3 (1.6) % inhibition | -2.8 (0.7) % inhibition | 18 (3.2) % inhibition | 97 % control | 2.1 (0.4) % inhibition |
